Experimental data as given in patent US20220137027A1, “METHOD FOR EVALUATING MOLECULAR CHANGES RELATED TO A MOLECULE EFFECT IN A BIOLOGICAL SAMPLE” (IMABIOTECH, priority 2019, published 2022).

How the values were obtained:
Format in all cases: in vivo, BALB/c mice
[1] = Epacadostat quantification in CT26 tumor sections by LC-MS/MS; conditions: BALB/c, mouse, CT26 tumor tissue sections, 100 mg/kg oral gavage
[2] = target: T1, IDO1 (Mus musculus, UniProt P28776); assay: Regional exposure to response analysis in segmented ROIs of treated CT26 tumor (Kyn, Lactate, IDO1 immunostaining)
T1 construct: Colon carcinoma CT26 cell line was subcutaneously grafted into BALB/c mice; from tissue
T1 sequence (P28776 whole entry): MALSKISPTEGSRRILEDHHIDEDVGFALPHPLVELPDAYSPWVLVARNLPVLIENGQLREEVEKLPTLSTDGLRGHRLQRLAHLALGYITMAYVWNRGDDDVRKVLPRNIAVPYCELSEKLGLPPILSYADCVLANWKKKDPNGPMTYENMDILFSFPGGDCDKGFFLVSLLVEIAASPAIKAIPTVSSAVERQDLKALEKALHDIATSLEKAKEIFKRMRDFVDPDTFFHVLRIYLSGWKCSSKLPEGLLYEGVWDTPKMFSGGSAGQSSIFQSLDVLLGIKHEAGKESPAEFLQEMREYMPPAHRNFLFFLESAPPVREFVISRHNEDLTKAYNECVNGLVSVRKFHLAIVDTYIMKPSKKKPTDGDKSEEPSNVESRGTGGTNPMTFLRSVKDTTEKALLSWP
Method: (§1) Colon carcinoma CT26 cell line was subcutaneously grafted into BALB/c mice (Charles River Laboratories, France). […] Tumors were sampled and snap frozen in liquid nitrogen for 15 s. The samples were kept at −80° C. until use. Ten micrometers thick tissue sections were obtained using a cryostat microtome (CM-3050S, Leica, Germany) with a microtome chamber and a specimen holder chilled at −23° C. Tissue sections were thaw mounted onto ITO-coated slides for downstream MALDI imaging and serial sections on SuperFrost slide for histological and immunohistochemistry (IHC) analysis. Biological replicates in duplicate (distant serial sections) were performed for analytical reproducibility. […] All animal experiments were compliant with the 2010/63/UE European Directive on Laboratory Animal Welfare and were approved by an Ethical Committee.
As Kyn was not detectable and Trp was slightly seen using classical method in CT26 tumor models, a derivatization strategy was necessary. The derivatization reaction amounts to adding the C11H16N+ (as X) unit to the neutral analyte. The agent was applied using an automatic sprayer (Suncollect, Sunchrom) and left during 30 min for incubation at room temperature. […] MSI data for kynurenine and tryptophan was recorded in positive ion mode (CASI, m/z range 350.0+/−150) at 120 μm of spatial resolution using an online calibration. […]
For MALDI MSI of other metabolites, a uniform layer of filtrated 1,5-diaminonaphtalene (1,5-DAN) prepared at 10 mg/mL with 50/50 ACN/H2O matrix was deposited onto the tumor tissue sections using an HTX-TM sprayer device (HTX Technologies, LLC, Carrboro, N.C.). […] MSI data for metabolites were recorded in full scan negative ion mode (m/z range 100-1000) at 120 μm of spatial resolution using an online calibration. […]
1.2 software (ImaBiotech SAS). This multimodal imaging platform combines quantitative mass spectrometry imaging (QMSI) and microscopy platform with statistical analysis for the understanding of the Omics information at cellular levels. […] Finally, an exposure score was calculated using the Multimaging software using the formula: […]

[3] = Epacadostat absolute quantification in CT26 tumor sections by QMSI (MALDI MSI)
Method: as §1
Then, low limit of detection (LOD), low limit of quantitation (LLOQ) and limit of linearity parameters were defined for the calibration curve that has been performed using at least 10 spotted concentrations on 10 μm thickness control tumor tissue sections. […] On the same ITO slide, calibration curve and tissue sections of interest (1 control and 3 treated in duplicates) were deposited and analyzed. Then, a uniform layer of filtrated 1,5-diaminonaphtalene (1,5-DAN) prepared at 10 mg/mL with 50/50 ACN/H2O matrix was deposited onto the tumor tissue sections using an HTX-TM sprayer device (HTX Technologies, LLC, Carrboro, N.C.). MALDI MSI analyses were performed using 7T MALDI-FTICR (SolariX XR, Bruker Daltonics, Bremen, Germany) with a SmartBeam II laser. […] Data acquisition was performed using the Flex software (FtmsControl 2.1.0) from Bruker Daltonics. Then, Multimaging software (ImaBiotech SAS) was used to obtain the calculated equation and to extract the different quantities in pmol/mm^2. A quantity conversion to μg/g of tissue was then obtained in created regions of interest (ROIs).
1.2 software (ImaBiotech SAS). This multimodal imaging platform combines quantitative mass spectrometry imaging (QMSI) and microscopy platform with statistical analysis for the understanding of the Omics information at cellular levels. MSI data were acquired from each tissue section as well as matrix control areas adjacent to the tissue sections to check for analyte dispersion/delocalization during sample preparation. Therefore, the ROIs related to EPA and/or Kyn presence were given by an image segmentation algorithm. […] Then, the algorithm smoothed the two ROIs to transform them into connected spaces. Finally, an exposure score was calculated using the Multimaging software using the formula: […]

[4] = Epacadostat quantification in plasma and blood; conditions: BALB/c, mouse, 100 mg/kg oral

Question: Which concentration at 2 h [1] does the source give for `NS(=O)(=O)NCCNc1nonc1C(=NO)Nc1ccc(F)c(Br)c1` [EPA, Epacadostat] here?
Answer: 38500 ng/g

Question: What about the “correlation between IDO1 expression level (semi-quantitative histology) and EPA levels” value ([2]; IDO1 immunostaining on serial section) of the same molecule?
Answer: positive correlation

Question: And the “share of Kyn present in ROI 1 (high EPA)” value ([2]; ROI 1 = 38% of the entire tumor)?
Answer: 15%

Question: What about the “share of Kyn present in ROI 2 (low EPA)” value ([2]; ROI 2) of the same molecule?
Answer: 85%

Question: And the Kp at 2 h ([3]; BALB/c, mouse, CT26 tumor relative to plasma, oral, 100 mg/kg, treated CT26 tumors, LC-MS/MS and QMSI)?
Answer: 3 to 4

Question: And the concentration at 2 h ([3]; BALB/c, mouse, CT26 tumor section, ROI 1 (high EPA region), oral, 100 mg/kg, EPA quantity in ROI 1 (high EPA), QMSI, ROI 1 = 38% of tumor surface)?
Answer: 68000 ng/g

Question: And the concentration at 2 h ([3]; BALB/c, mouse, CT26 tumor section, ROI 1, oral, 100 mg/kg, EPA quantity corresponding to the share in ROI 1, 61% of EPA signal)?
Answer: 26000 ng/g

Question: What about the concentration at 2 h ([3]; BALB/c, mouse, CT26 tumor section, ROI 2 (low EPA region), oral, 100 mg/kg, EPA quantity in ROI 2 (low EPA), QMSI, ROI 2 = 62% of tumor surface) of the same molecule?
Answer: 25000 ng/g

Question: And the concentration at 2 h ([3]; BALB/c, mouse, CT26 tumor section, ROI 2, oral, 100 mg/kg, EPA quantity corresponding to the share in ROI 2, 39% of EPA signal)?
Answer: 15000 ng/g

Question: What about the concentration at 2 h ([3]; BALB/c, mouse, CT26 tumor section, ROI 3 (entire section), oral, 100 mg/kg, EPA quantity in ROI 3 (entire treated tumor section), QMSI) of the same molecule?
Answer: 42000 ng/g

Question: And the concentration at 2 h ([3]; BALB/c, mouse, CT26 tumor tissue sections, po, 100 mg/kg, EPA quantity in treated CT26 tumor sections, three biological triplicates, QMSI, 100 mg/kg oral gavage, sacrificed 2 hours later)?
Answer: 38000 to 53000 ng/g

Question: And the concentration at 2 h ([3]; BALB/c, mouse, CT26 tumor tissue sections, po, 100 mg/kg, average EPA quantity in CT26 tumor, QMSI, 100 mg/kg oral gavage, 2 hours)?
Answer: 46000 ng/g

Question: And the concentration at 2 h ([3]; BALB/c, mouse, CT26 tumor tissue, oral, 100 mg/kg, available on tissue quantity of EPA in treated CT26 tumors, LC-MS/MS and QMSI)?
Answer: 35000 to 48000 ng/g

Question: What about the “share of EPA signal concentrated in ROI 1” value ([3]; ROI 1 = 38% of entire tissue section) of the same molecule?
Answer: ~61%

Question: What about the “share of EPA signal in ROI 2” value ([3]; ROI 2 = 62% left tumor region) of the same molecule?
Answer: 39%

Question: What about the concentration at 2 h ([4]; plasma) of the same molecule?
Answer: 6600 ng/g

Question: What about the concentration at 2 h ([4]; whole blood) of the same molecule?
Answer: 7300 ng/g
